From patent publication EP2958919B1, “DIHYDROPTERIDINONES I” (Boehringer Ingelheim International GmbH, priority 2013, dated 2014)

Tests used:
Aβ total = Aβ total cellular assay in H4 neuroglioma cells stably expressing human APP695 (electrochemiluminescence), used for the ratio Aβ total IC50 / Aβ42 IC50; format: cell-based; conditions: higher ratio = more specific inhibition of Aβ42
Description: (§1) Cells were plated out to near confluency. The compounds to be tested were received as 10 mM stocks in 100% DMSO. A dilution series was initially generated in 100% DMSO and then diluted 200-fold in cell culture media such that the tested concentration range was 30 µM to 0.1 nM and the final DMSO concentration was 0.5%. The diluted compounds were incubated with the cells for 22 hours in an incubator at 37°C and 5% CO2. Aβ42 as well as Aβ total levels were then measured post-incubation from the supernatant of the cells. Aβ42 levels were determined using a specific electrochemiluminescence assay provided by Meso Scale Discovery (Catalog # L21CA-1) according to the manufacturer's protocol. Aβ total levels were likewise determined using a specific electrochemiluminescence assay provided by Meso Scale Discovery (Catalog # L21ZA-1) according to the manufacturer's protocol.
(§2) In order to absolutely define the described compounds as modulators of γ-Secretase as opposed to simply inhibitors of γ-Secretase, measurements of not only Aβ42 but also Aβ total are performed.

Aβ42 = Aβ42 cellular assay in H4 neuroglioma cells stably expressing human APP695 (electrochemiluminescence, Meso Scale Discovery); format: cell-based; conditions: 22 hours incubation, supernatant
Description: as §1, §2

| Compound | IC50 (Aβ42) | Ratio Aβ(total)/Aβ42 (Aβ total) |
| --- | --- | --- |
| CCc1nc(Nc2ccc(-n3cnc(C)c3)c(OC)c2)nc2c1NC(=O)[C@H]1[C@@H](c3ccc(F)cc3)CCN21 (racemic) [Example 22] | 818 nM | 71 |
| CCc1nc(Nc2ccc(-n3cnc(C)c3)c(OC)c2)nc2c1NC(=O)[C@@]1(C)[C@@H](OC)CN21 (racemic) [Example 27] | 360 nM | 70 |
| CCN1C(=O)C2CCCCCN2c2nc(Nc3ccc(-n4cnc(C)c4)c(OC)c3)ncc21 (centres unmarked) [Example 1] | 48 nM | 127 |
| CCN1C(=O)C2CCCCCN2c2nc(Nc3ccc(-c4ccnc(C)c4)cc3)ncc21 (centres unmarked) [Example 3] | 398 nM | 17 |
| CCCN1C(=O)C2CCCCCN2c2nc(Nc3ccc(-n4cnc(C)c4)c(OC)c3)ncc21 (centres unmarked) [Example 4] | 113 nM | 44 |
| COc1cc(Nc2ncc3c(n2)N2CCCCCC2C(=O)N3C(C)C)ccc1-n1cnc(C)c1 (centres unmarked) [Example 5-1] | 72 nM | 109 |
| CCN1C(=O)C2CCCCCN2c2nc(Nc3ccc(-n4ccnc4)c(OC)c3)ncc21 (centres unmarked) [Example 5-2] | 175 nM | 64 |
| CCN1C(=O)C2CCCCCN2c2nc(Nc3ccc(-n4cnc(C)n4)c(OC)c3)ncc21 (centres unmarked) [Example 5-3] | 265 nM | 101 |
| CCN1C(=O)C2CCCCCN2c2nc(Nc3cnc(-n4cnc(C)c4)c(OC)c3)ncc21 (centres unmarked) [Example 5-4] | 172 nM | >175 |
| CCN1C(=O)C2CCCCCN2c2nc(Nc3ccc(-c4cnc(C)s4)c(OC)c3)ncc21 (centres unmarked) [Example 5-5] | 711 nM | 13 |
| CCN1C(=O)C2CCCCCN2c2nc(Nc3ccc(-n4cnc(C)c4)cc3)ncc21 (centres unmarked) [Example 5-6] | 704 nM | 43 |
| CCN1C(=O)C2CCCCCN2c2nc(Nc3ccc(-n4cnc(C)c4)cc3OC)ncc21 (centres unmarked) [Example 5-7] | 11400 nM | 3 |
| CCCN1C(=O)C2CCCCCN2c2nc(Nc3ccc(-c4ccnc(C)c4)cc3)ncc21 (centres unmarked) [Example 5] | 720 nM | 14 |
| CCc1nc(Nc2ccc(-c3ccnc(C)c3)cc2)nc2c1N(C)C(=O)C1CCCN21 (centres unmarked) [Example 8] | 293 nM | 62 |
| CCc1nc(Nc2ccc(-c3cnc(C)o3)nc2)nc2c1N(C)C(=O)C1CCCN21 (centres unmarked) [Example 9] | 1230 nM | >24 |
| COc1cc(Nc2ncc3c(n2)N2CCCC2C(=O)N3C)ccc1-n1cnc(C)n1 (centres unmarked) [Example 12-1] | 2940 nM | >10 |

| Compound | IC50 (Aβ42) | Ratio Aβ(total)/Aβ42 (Aβ total) |
| --- | --- | --- |
| CN1C(=O)C2CCCN2c2nc(Nc3ccc(-c4cnn(C)c4)nc3)ncc21 (centres unmarked) [Example 12-2] | 5750 nM | >5 |
| Cc1cn(-c2ccc(Nc3ncc4c(n3)N3CCCC3C(=O)N4C)cc2F)cn1 (centres unmarked) [Example 12-3] | 1100 nM | >27 |
| COc1cc(Nc2ncc3c(n2)N2CCCC2C(=O)N3C)ccc1-n1ncnc1C (centres unmarked) [Example 12-4] | 754 nM | >39 |
| COc1cc(Nc2ncc3c(n2)N2CCCC2(C)C(=O)N3C)ccc1-n1cnc(C)c1 (centres unmarked) [Example 12] | 160 nM | 147 |
| CCc1nc(Nc2ccc(-n3cnc(C)c3)c(C#N)c2)nc2c1NC(=O)[C@@H]1C[C@@H](OC)CN21 [Example 16] | 222 nM | 33 |
| CCc1nc(Nc2ccc(-n3cnc(C)c3)c(OC)c2)nc2c1NC(=O)[C@@H]1C[C@@H](OC)CN21 [Example 17] | 299 nM | 68 |
| CCc1nc(Nc2ccc(-c3cnc(C)o3)c(OC)c2)nc2c1N(C)C(=O)[C@@H]1C[C@@H](OC)CN21 [Example 18] | 140 nM | 215 |
| CCc1nc(Nc2ccc(-n3cnc(C)c3)c(OC)c2)nc2c1N(CCOC)C(=O)[C@@H]1C[C@@H](OC)CN21 [Example 19-1] | 201 nM | 131 |
| CCc1nc(Nc2ccc(-c3cnc(C)o3)c(OC)c2)nc2c1NC(=O)[C@@H]1C[C@@H](OC)CN21 [Example 19] | 364 nM | 82 |
| CCc1nc(Nc2ccc(-n3cnc(C)c3)c(OC)c2)nc2c1N(C)C(=O)[C@@]1(C)C[C@@H](OC)CN21 [Example 24] | 166 nM | 181 |
| COc1cc(Nc2nc(CC(C)C)c3c(n2)N2C[C@H](OC)C[C@]2(C)C(=O)N3C)ccc1-n1cnc(C)c1 [Example 26] | 63 nM | 253 |
| COc1cc(Nc2ncc3c(n2)N2CCCOCC2C(=O)N3)ccc1-n1cnc(C)c1 (centres unmarked) [Example 30] | 312 nM | 96 |
| COc1cc(Nc2ncc3c(n2)N2CCCOC2(C)C(=O)N3C)ccc1-n1cnc(C)c1 (centres unmarked) [Example 31] | 540 nM | 55 |
| CC(C)Cc1nc(Nc2ccc(-c3cnn(C)c3)cc2)nc2c1N(C)C(=O)C1CCCN21 (centres unmarked) [Example 34] | 928 nM | 30 |
| COc1cc(Nc2nc(C(C)C)c3c(n2)N2CCN(C(=O)OC(C)(C)C)CC2C(=O)N3C)ccc1-n1cnc(C)c1 (centres unmarked) [Example 37] | 320 nM | 12 |

Second part, led by results:

| IC50 (Aβ42) | Compound | Ratio Aβ(total)/Aβ42 (Aβ total) |
| --- | --- | --- |
| 223 nM | CCc1nc(Nc2ccc(-n3cnc(C)c3)c(OC)c2)nc2c1NC(=O)C1CC(OC)CCN21 (racemic) [Example 20] | 30 |
| 105 nM | CCc1nc(Nc2ccc(-n3cnc(C)c3)c(OC)c2)nc2c1N(C)C(=O)C1CC(OC)CCN21 (racemic) [Example 21] | 98 |
| 70 nM | CCc1nc(Nc2ccc(-n3cnc(C)c3)c(OC)c2)nc2c1N(C)C(=O)[C@H]1[C@H](c3ccc(F)cc3)CCN21 (racemic) [Example 23] | 90 |
| 97 nM | COc1cc(Nc2ncc3c(n2)N2CCCCCC2C(=O)N3C)ccc1-n1cnc(C)c1 (centres unmarked) [Example 2] | 59 |
| 84 nM | CCc1nc(Nc2ccc(-n3cnc(C)c3)c(OC)c2)nc2c1N(C)C(=O)C1CCCN21 (centres unmarked) [Example 6] | 96 |
| 96 nM | CCc1nc(Nc2ccc(-n3cnc(C)c3)c(OC)c2)nc2c1NC(=O)C1CCCN21 (centres unmarked) [Example 7] | 98 |
| 149 nM | CCc1nc(Nc2ccc(-c3cnc(C)o3)c(OC)c2)nc2c1N(C)C(=O)C1CCCN21 (centres unmarked) [Example 10] | 189 |
| 97 nM | COc1cc(Nc2ncc3c(n2)N2CCCC2C(=O)N3C)ccc1-n1cnc(C)c1 (centres unmarked) [Example 11] | >310 |
| 420 nM | COc1cc(Nc2nc(SC)c3c(n2)N2CCCCC2C(=O)N3C)ccc1-n1cnc(C)c1 (centres unmarked) [Example 13] | 14 |
| 97 nM | CCc1nc(Nc2ccc(-n3cnc(C)c3)c(OC)c2)nc2c1N(C)C(=O)[C@@H]1C[C@@H](OC)CN21 [Example 14] | 67 |
| 145 nM | CCc1nc(Nc2ccc(-n3cnc(C)c3)c(C#N)c2)nc2c1N(C)C(=O)[C@@H]1C[C@@H](OC)CN21 [Example 15] | 36 |
| 145 nM | CCc1nc(Nc2ccc(-n3cnc(C)c3)c(OC)c2)nc2c1N(C)C(=O)[C@]1(C)C[C@@H](OC)CN21 [Example 25] | 73 |
| 272 nM | CCc1nc(Nc2ccc(-n3cnc(C)c3)c(OC)c2)nc2c1NC(=O)C1COCCN21 (centres unmarked) [Example 28] | 29 |
| 231 nM | CCc1nc(Nc2ccc(-n3cnc(C)c3)c(OC)c2)nc2c1N(C)C(=O)C1COCCN21 (centres unmarked) [Example 29] | 76 |
| 134 nM | COc1cc(Nc2nc(C(C)C)c3c(n2)N2CCCC2C(=O)N3C)ccc1-n1cnc(C)c1 (centres unmarked) [Example 32] | 66 |
| 76 nM | COc1cc(Nc2nc(CC(C)C)c3c(n2)N2CCCC2C(=O)N3C)ccc1-n1cnc(C)c1 (centres unmarked) [Example 33] | 171 |
| 126 nM | Cc1cn(-c2ccc(Nc3nc(CC(C)C)c4c(n3)N3CCCC3C(=O)N4C)cc2C#N)cn1 (centres unmarked) [Example 35] | 71 |
| 64 nM | CCc1nc(Nc2ccc(-n3cnc(C)c3)c(OC)c2)nc2c1N(C)C(=O)C1CCCCN21 (centres unmarked) [Example 36] | 86 |
